The record followed here is paper PMC11606603, “The membrane domains of mammalian adenylyl cyclases are lipid receptors” (eLife, 2024).

Type in all cases: biochemical
The target of one assay is T1, mAC6 (Homo sapiens, UniProt O43306).
T1 construct: Human mAC genes were from GenScript and fitted with a C-terminal FLAG-tag; FLAG (C); made in house; host or cells: HEK293, permanently transfected; membrane preparation
In words: AC assay, Gsα-stimulated mAC6 in membranes from transfected HEK293 cells. To be noted: 20µM fatty acid concentration. The method, boiled down:
(§1)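 cAMP detected with a Cisbio kit, calibrated by a cAMP standard curve each run. Reaction: 1 mM ATP, 2 mM MgCl2, 3 mM creatine phosphate, 60 μg/ml creatine kinase, 50 mM MOPS pH 7.5. Enzyme source: membranes of stably transfected HEK293 (G418-selected) carrying FLAG-tagged human AC.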

Another assay concerns the target T2, mAC8 (Homo sapiens, UniProt P40145).
T2 construct: Human mAC genes were from GenScript and fitted with a C-terminal FLAG-tag; FLAG (C); made in house; host or cells: HEK293, permanently transfected; membrane preparation
The assay is described as follows: AC assay, Gsα-stimulated mAC8 in membranes from transfected HEK293 cells. To be noted: 20µM fatty acid concentration. How it is done: hAC sequences were from NCBI were: ADCY1: NM_021116.3; ADCY2: NM_020546.2; ADCY3: NM_004036.4; ADCY4: NM_001198568.2; ADCY5: NM_183357.2; ADCY6: NM_015270.4; ADCY7: NM_001114.4; ADCY8: NM_001115.2; ADCY9: NM_001116.3. Human mAC genes were from GenScript and fitted with a C-terminal FLAG-tag. […] The gene was synthesized by GenScript. HEK293 cells were maintained in Dulbeccos Modified Eagle Medium (DMEM) with 10% fetal bovine serum at 37°C and 5% CO2. Transfection with AC plasmids was with PolyJet (SignaGen, Frederick, MD, USA). Permanent cell lines were generated by selection for 7 days with 600 µg/ml G418 and maintained with 300 µg/ml For membrane preparation, cells were tyrpsinized, collected by centrifugation (3000 × g, 5 min) and lysed and homogenized in 20 mM HEPES, pH 7.5, 1 mM Ethylenediaminetetraacetic acid (EDTA), 2 mM MgCl2, 1 mM Dithiothreitol (DTT), one tablet of cOmplete, EDTA-free (per 50 ml) and 250 mM sucrose by 20 strokes in a potter homogenizer on ice. Debris was removed (5 min at 1000 × g, 0°C), membranes were collected at 100,000 × g, 60 min at 0°C, suspended and stored at −80°C in 20 mM MOPS, pH 7.5, 0.5 mM EDTA, 2 mM MgCl2. […] Three cerebral cortices were dissected and homogenized in 4.5 ml cold 48 mM Tris–HCl, pH 7.4, 12 mM MgC1_2, and 0.1 mM Ethylene glycol-bis(β-aminoethyl ether)-N,N,N′,N′-tetraacetic acid (EGTA) with a Polytron hand disperser (Kinematica AG, Switzerland). […] The pellet was washed once with 5 ml 1 mM KHCO3. The final suspension in 2 ml 1 mM KHCO3 was stored in aliquots at −80°C.
In a volume of 10 μl, AC activities were measured using 1 mM ATP, 2 mM MgCl2, 3 mM creatine phosphate, 60 μg/ml creatine kinase, and 50 mM MOPS pH 7.5. The cAMP assay kit from Cisbio (Codolet, France) was used for detection according to the supplier’s instructions. For each assay, a cAMP standard curve was established. EC50 and IC50 values were calculated by GraphPad Prism version 8.4.3 for Windows, GraphPad Software, San Diego, CA, USA, https://www.graphpad.com .

Another assay addresses T3, mAC3 (Homo sapiens, UniProt O60266).
T3 construct: Human mAC genes were from GenScript and fitted with a C-terminal FLAG-tag; FLAG (C); made in house; host or cells: HEK293, permanently transfected; membrane preparation
The assay is described as follows: AC assay, Gsα-stimulated mAC3 in membranes from transfected HEK293 cells. The conditions noted are these: for mAC3 activity [%] (100% = 300nM Gsα stimulation): fatty acid 20 µM, individual experiments. The method, boiled down:
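cAMP formation was quantified by HTRF against a cAMP standard curve, with EC50 or IC50 derived by curve fitting. Reactions contained 1 mM ATP, 2 mM MgCl2, 3 mM creatine phosphate, 60 μg/ml creatine kinase and 50 mM MOPS pH 7.5, using membranes of stably transfected HEK293 cells carrying FLAG-tagged human AC.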

In another assay the target is T4, mAC7 (Homo sapiens, UniProt P51828).
T4 construct: Human mAC genes were from GenScript and fitted with a C-terminal FLAG-tag; FLAG (C); made in house; host or cells: HEK293, permanently transfected; membrane preparation
T4 sequence (P51828 whole entry): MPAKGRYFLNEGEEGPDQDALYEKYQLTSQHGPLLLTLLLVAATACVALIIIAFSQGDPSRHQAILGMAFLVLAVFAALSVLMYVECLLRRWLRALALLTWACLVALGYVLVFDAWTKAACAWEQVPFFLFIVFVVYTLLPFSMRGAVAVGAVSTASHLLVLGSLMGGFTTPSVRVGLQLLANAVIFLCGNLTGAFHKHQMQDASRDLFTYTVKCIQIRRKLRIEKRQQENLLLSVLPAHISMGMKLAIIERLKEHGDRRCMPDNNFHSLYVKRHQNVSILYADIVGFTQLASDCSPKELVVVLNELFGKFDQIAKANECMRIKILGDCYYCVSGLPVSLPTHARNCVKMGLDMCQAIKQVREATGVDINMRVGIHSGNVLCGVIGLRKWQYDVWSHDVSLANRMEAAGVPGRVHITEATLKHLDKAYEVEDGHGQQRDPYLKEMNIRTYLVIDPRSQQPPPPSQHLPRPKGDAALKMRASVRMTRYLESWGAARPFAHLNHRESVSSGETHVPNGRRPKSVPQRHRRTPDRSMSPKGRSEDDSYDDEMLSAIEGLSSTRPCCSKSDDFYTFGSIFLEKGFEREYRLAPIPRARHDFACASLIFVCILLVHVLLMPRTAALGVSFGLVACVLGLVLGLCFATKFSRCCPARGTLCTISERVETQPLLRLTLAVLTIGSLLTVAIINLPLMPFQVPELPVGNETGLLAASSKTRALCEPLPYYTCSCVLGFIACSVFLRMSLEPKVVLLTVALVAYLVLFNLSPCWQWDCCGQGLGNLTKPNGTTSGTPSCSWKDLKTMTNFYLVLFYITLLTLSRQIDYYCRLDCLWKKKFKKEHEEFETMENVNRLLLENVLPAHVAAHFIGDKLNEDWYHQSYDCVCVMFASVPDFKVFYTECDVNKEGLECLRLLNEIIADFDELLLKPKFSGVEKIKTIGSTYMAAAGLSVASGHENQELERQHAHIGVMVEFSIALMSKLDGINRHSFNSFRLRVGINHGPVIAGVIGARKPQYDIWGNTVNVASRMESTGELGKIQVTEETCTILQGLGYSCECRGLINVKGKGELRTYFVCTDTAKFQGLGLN
T4 sequence (P63092 2-394 Q227L partner): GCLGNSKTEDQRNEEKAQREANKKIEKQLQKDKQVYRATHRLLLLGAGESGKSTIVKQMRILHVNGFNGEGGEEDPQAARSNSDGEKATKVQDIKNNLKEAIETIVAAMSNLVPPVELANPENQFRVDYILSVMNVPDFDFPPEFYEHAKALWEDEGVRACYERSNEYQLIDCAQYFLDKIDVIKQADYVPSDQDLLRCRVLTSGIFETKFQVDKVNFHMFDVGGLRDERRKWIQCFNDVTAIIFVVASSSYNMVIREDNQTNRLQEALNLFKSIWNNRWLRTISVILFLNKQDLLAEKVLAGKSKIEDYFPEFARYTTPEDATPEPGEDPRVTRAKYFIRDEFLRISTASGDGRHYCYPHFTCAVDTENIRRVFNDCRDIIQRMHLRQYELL
The assay is described as follows: AC assay, Gsα-stimulated mAC7 in membranes from transfected HEK293 cells. The conditions noted are these: Figure 5-figure supplement 2 left, 20 µM. The method, boiled down: as §1

The next assay has as its target T5, mAC1 (Homo sapiens, UniProt Q08828).
T5 construct: Human mAC genes were from GenScript and fitted with a C-terminal FLAG-tag; FLAG (C); made in house; host or cells: HEK293, permanently transfected; membrane preparation
In words: AC assay, Gsα-stimulated mAC1 in membranes from transfected HEK293 cells. The conditions noted are these: 20 µM fatty acid; 300 nM Gsα; single experiments. The gist of the method: as §1

In the next assay the target is T6, mAC4 (Homo sapiens, UniProt Q8NFM4).
T6 construct: Human mAC genes were from GenScript and fitted with a C-terminal FLAG-tag; FLAG (C); made in house; host or cells: HEK293, permanently transfected; membrane preparation
T6 sequence (Q8NFM4 1-1077): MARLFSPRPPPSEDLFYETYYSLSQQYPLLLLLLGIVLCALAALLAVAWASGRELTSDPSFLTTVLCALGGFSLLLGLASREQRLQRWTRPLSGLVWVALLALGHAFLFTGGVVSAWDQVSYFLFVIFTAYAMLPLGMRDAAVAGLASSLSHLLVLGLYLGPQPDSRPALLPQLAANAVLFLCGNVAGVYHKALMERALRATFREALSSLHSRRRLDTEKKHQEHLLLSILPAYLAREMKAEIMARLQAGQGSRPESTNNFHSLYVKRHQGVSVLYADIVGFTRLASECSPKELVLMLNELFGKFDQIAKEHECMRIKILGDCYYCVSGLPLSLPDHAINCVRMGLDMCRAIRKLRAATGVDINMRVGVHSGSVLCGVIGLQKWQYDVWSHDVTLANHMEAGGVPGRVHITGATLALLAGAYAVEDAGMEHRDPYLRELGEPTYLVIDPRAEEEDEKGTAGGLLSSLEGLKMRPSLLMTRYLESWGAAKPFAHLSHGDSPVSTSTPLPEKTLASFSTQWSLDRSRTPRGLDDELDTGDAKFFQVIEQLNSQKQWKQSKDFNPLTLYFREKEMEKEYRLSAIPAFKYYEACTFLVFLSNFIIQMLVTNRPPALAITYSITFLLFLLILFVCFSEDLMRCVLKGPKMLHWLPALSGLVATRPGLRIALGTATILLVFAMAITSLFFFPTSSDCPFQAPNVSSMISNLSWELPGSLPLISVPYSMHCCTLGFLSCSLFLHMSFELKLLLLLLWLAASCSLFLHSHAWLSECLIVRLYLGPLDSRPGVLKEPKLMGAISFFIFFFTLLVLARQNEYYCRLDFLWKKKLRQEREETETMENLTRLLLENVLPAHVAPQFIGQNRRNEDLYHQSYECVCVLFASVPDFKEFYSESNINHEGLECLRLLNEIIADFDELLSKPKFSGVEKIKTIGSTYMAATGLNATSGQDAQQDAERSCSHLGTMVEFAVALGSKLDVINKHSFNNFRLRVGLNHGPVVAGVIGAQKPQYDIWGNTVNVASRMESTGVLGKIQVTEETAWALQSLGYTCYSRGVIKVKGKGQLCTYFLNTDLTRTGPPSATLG
In words: AC assay, Gsα-stimulated mAC4 in membranes from transfected HEK293 cells. The conditions noted are these: 20 µM fatty acid; 300 nM Gsα; single experiments. The gist of the method: as §1

In another assay the target is T7, mAC2 (Homo sapiens, UniProt Q08462).
T7 construct: Human mAC genes were from GenScript and fitted with a C-terminal FLAG-tag; FLAG (C); made in house; host or cells: HEK293, permanently transfected; membrane preparation
T7 sequence (Q08462 whole entry): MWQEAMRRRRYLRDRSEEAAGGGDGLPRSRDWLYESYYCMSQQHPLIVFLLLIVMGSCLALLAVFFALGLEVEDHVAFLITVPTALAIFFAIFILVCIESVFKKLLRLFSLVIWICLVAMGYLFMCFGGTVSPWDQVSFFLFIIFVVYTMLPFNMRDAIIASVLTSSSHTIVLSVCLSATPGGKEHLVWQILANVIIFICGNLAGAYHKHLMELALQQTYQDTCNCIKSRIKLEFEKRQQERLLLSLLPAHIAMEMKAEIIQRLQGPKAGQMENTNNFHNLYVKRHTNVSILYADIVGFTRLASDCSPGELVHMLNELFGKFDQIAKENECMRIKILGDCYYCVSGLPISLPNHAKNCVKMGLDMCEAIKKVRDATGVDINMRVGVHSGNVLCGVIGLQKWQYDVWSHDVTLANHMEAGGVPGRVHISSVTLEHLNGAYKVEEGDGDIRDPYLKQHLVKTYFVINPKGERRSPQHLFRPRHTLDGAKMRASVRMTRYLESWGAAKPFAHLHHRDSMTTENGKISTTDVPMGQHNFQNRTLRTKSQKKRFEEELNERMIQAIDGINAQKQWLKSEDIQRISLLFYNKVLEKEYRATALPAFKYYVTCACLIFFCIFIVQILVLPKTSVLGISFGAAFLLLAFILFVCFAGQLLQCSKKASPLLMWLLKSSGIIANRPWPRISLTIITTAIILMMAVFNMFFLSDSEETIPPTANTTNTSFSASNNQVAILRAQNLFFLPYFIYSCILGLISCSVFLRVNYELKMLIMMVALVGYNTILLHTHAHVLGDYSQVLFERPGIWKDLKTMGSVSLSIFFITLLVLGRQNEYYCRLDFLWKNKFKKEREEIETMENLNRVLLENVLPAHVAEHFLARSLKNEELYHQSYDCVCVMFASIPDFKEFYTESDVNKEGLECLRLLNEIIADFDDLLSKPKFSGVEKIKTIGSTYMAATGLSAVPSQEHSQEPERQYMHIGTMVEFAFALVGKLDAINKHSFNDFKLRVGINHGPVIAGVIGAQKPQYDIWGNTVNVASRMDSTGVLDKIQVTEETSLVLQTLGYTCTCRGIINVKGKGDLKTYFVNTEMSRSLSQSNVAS
T7 sequence (P63092 2-394 Q227L partner): as the sequence (P63092 2-394 Q227L partner) above
The assay is described as follows: AC assay, Gsα-stimulated mAC2 in membranes from transfected HEK293 cells. The conditions noted are these: for mAC2 activity [%] (100% = 300nM Gsα stimulation); 20µM fatty acid concentration: Figure 5-figure supplement 1 left. The method, boiled down: as §1

The next assay addresses T8, mAC5 (Homo sapiens, UniProt O95622).
T8 construct: Human mAC genes were from GenScript and fitted with a C-terminal FLAG-tag; FLAG (C); made in house; host or cells: HEK293, permanently transfected; membrane preparation
The assay is described as follows: AC assay, Gsα-stimulated mAC5 in membranes from transfected HEK293 cells. To be noted: 20µM fatty acid concentration. The gist of the method:
as §1

In the next assay the target is T9, mAC9 (Homo sapiens, UniProt O60503).
T9 construct: Human mAC genes were from GenScript and fitted with a C-terminal FLAG-tag; FLAG (C); made in house; host or cells: HEK293, permanently transfected; membrane preparation
The assay is described as follows: AC assay, Gsα-stimulated mAC9 in membranes from transfected HEK293 cells. The method, boiled down:
as §1

Values joined by “and” are separate entries in the source; they are usually repeats but may differ in a detail not shown here. Equal entries are not always repeated.

T3 sequence (O60266 whole entry): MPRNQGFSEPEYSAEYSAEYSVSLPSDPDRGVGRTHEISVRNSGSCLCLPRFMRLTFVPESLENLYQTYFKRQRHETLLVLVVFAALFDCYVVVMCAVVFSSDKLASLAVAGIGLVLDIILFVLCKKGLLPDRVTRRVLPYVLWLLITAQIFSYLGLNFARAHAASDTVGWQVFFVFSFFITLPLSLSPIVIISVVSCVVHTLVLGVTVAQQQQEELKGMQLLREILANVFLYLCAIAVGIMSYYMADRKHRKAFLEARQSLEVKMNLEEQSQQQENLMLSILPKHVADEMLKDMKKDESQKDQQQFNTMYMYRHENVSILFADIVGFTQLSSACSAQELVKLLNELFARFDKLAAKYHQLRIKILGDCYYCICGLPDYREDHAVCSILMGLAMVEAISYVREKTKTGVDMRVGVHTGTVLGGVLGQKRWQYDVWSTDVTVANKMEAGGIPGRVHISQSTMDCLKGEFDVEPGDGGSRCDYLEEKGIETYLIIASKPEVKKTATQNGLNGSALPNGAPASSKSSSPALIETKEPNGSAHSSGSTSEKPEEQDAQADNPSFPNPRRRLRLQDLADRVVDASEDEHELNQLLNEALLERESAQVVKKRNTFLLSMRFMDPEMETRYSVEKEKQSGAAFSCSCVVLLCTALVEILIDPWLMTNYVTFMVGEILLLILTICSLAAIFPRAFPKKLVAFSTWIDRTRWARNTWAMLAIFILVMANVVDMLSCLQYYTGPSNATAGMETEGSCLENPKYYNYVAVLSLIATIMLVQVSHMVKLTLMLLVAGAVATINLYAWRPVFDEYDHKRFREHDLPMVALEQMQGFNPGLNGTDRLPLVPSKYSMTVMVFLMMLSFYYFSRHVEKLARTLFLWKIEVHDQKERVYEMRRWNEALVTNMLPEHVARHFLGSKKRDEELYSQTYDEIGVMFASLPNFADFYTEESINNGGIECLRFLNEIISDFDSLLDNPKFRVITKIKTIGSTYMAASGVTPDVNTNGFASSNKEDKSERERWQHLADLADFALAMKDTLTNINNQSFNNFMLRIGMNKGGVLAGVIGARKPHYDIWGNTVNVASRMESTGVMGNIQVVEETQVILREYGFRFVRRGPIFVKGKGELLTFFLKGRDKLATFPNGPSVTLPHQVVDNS
T3 sequence (P63092 whole entry Q227L partner): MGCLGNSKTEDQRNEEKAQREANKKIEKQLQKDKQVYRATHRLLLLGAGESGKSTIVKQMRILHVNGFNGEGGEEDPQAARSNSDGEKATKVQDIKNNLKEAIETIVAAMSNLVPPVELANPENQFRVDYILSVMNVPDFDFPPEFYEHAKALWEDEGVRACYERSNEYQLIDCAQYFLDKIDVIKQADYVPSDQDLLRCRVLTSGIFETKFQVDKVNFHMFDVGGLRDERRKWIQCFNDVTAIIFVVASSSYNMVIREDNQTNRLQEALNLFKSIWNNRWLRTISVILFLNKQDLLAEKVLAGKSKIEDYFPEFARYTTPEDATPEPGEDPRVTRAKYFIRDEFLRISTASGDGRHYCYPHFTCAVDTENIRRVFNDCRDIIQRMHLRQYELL

What is called EC50 is the midpoint of the concentration-response curve. For `CCCCCC/C=C\CCCCCCCCCC(=O)O` [cis-Vaccenic acid, cis-Vaccenic ((11E)-octadecenoic) acid], the “mAC6 activity [%] (100% = 300nM Gsα stimulation)” value at mAC6 was 91% and 114%. For the same molecule, the “mAC8 activity [%] (100% = 300nM Gsα stimulation)” value at mAC8 was 107% and 123%. Besides, the “Effect of lipid on 300 nM Gsα-stimulated mAC3” value on mAC3 (20 µM, in words) is reported as “efficient enhancers”. At mAC3, the “mAC3 activity [%] (100% = 300nM Gsα stimulation)” value was 429% and 498% and 460% and 363% and 411%. For the same molecule, at mAC7, the “mAC7 activity [%] (100% = 300nM Gsα stimulation); 20µM fatty acid concentration” value was 148% and 179%. The “mAC1 activity [%] (100% = 300nM Gsα stimulation); 20µM fatty acid concentration” value at mAC1 was 61% and 67% and 86%. The “mAC4 activity [%] (100% = 300nM Gsα stimulation); 20µM fatty acid concentration” value at mAC4 is 78% and 66% and 107%. The “Effect of lipid on 300 nM Gsα-stimulated mAC2” value at mAC2 (20 µM, in words) is “doubled”. For the same molecule, on mAC2 (20 µM), the “mAC2 activity [%] (100% = 300nM Gsα stimulation); 20µM fatty acid concentration” value is 243% and 149% and 146% and 170% and 233%. The “mAC2 activity (%);(100% = Gsα stimulation) stimulated by 300nM Gsα” value at mAC2 (cis-Vaccenic acid 1 µM) is 120% and 97% and 119% and 112% and 115%; at mAC2 (cis-Vaccenic acid 3 µM), 117% and 107% and 130% and 128% and 95%; on mAC2 (cis-Vaccenic acid 6 µM) it was 93% and 112% and 130% and 120% and 121%; on mAC2 (cis-Vaccenic acid 10 µM), 141% and 119% and 166% and 123% and 169%; at mAC2 (cis-Vaccenic acid 20 µM) it was 146% and 170% and 233% and 243% and 149%. For the same molecule, the EC50 is 10.6 µM on mAC2 (enhancement of 300 nM Gsα-stimulated activity) and 8.5 µM at mAC9 (enhancement of 300 nM Gsα-stimulated activity, read-out: EC50 for mAC9). Also, the activity at 0.3 µM on mAC2 (read-out: mAC2 activity (%);(100% = Gsα stimulation) stimulated by 300nM Gsα, cis-Vaccenic acid 0.3 µM) is 100%. Also, the “mAC5 activity [%] (100% = 300nM Gsα stimulation)” value at mAC5 was 124% and 95%. In addition, the “mAC9 activity (%);(100% = Gsα stimulation) stimulated by 300nM Gsα” value is 116% and 153% and 119% and 113% on mAC9 (6 µM fatty acid, 300 nM Gsα, single experiments); 174% at mAC9 (8 µM fatty acid, 300 nM Gsα, single experiments).

Regarding `CCCCCCCCCC(O)CCCCCCCC(=O)O` (centres unmarked) [9-HSA, 9-Hydroxystearic acid], at mAC6, the “mAC6 activity [%] (100% = 300nM Gsα stimulation)” value is 122% and 118%. In addition, the “mAC8 activity [%] (100% = 300nM Gsα stimulation)” value at mAC8 is 67% and 108%. Further, on mAC3, the “mAC3 activity [%] (100% = 300nM Gsα stimulation)” value is 104% and 110%. Besides, the “mAC7 activity [%] (100% = 300nM Gsα stimulation); 20µM fatty acid concentration” value at mAC7 is 161% and 83%. In addition, the “mAC1 activity [%] (100% = 300nM Gsα stimulation); 20µM fatty acid concentration” value at mAC1 was 95% and 93%. Also, the “mAC4 activity [%] (100% = 300nM Gsα stimulation); 20µM fatty acid concentration” value at mAC4 is 134% and 93%. Also, the “mAC2 activity [%] (100% = 300nM Gsα stimulation); 20µM fatty acid concentration” value on mAC2 (20 µM) is 89% and 75%. On mAC5, the “mAC5 activity [%] (100% = 300nM Gsα stimulation)” value was 100% and 102%. In addition, at mAC9 (20 µM fatty acid, 300 nM Gsα, single experiments), the “mAC9 activity [%] (100% = 300nM Gsα stimulation); 20µM fatty acid concentration” value is 93% and 157%.
